The results in this text go back to patent publication US20060147549A1, “Methods and compositions for reducing population of plant pathogen” (priority 2004, published 2006).

This experiment deals with citrus canker microbe (Xanthomonas axonopodis pv citri). Kind of experiment: Nursery experiment: compositions sprayed on fruit bearing citrus trees inoculated with citrus canker microbe. The format is in vivo. How it is done: In a nursery experiment, three antimicrobial compositions and a control composition were tested for activity against citrus canker microbe. The compositions were sprayed on fruit bearing citrus trees that had been inoculated with citrus canker microbe (Xanthomonas axonopodis pv citri). In these experiments composition A was the metal antimicrobial agent and poly(hexamethyl biguanide) composition and composition B was this composition plus copper ion.
The composition of metal antimicrobial agent and poly(hexamethyl biguanide) as used in compositions A and B included: water ([…]), poly(hexamethyl biguanide) (0.6 wt-%), and silver iodide (0.02 wt-%) Triton X-100 (2 wt-%), Tectronic 1107 (1.2 wt-%), 1-methyl-2-pyrrolidinone (0.3 wt-%), and ethanol (2.8 wt-%).
The antimicrobial composition was applied periodically and the plants were challenged with citrus canker microbe.

Consider Copper, for which the “% OF HEALTHY LEAVES” value (Date 1) is on record as 82%, the “% OF HEALTHY LEAVES” value (Date 2) stood at 80.7% and the “% OF HEALTHY LEAVES” value (Date 4) was 84.7%. Moreover, the “% OF LEAVES WITH CANKER” value is recorded as 22.2% (Date 1), 18% (Date 2) and 17.59% (Date 4).
